Results on 1 compound are retold here after US11827624B2, “Covalent immune recruiter compounds for immune cell recognition and associated uses” (McMaster University, priority 2020, dated 2023).

For this assay, the system named is PSMA+HEK cells. The assay is described as follows: Two-colour flow cytometry ADCP (CD64) assay with mmAb on PSMA+HEK cells. Format: cell-based, human. From the text:
ADCP flow cytometry experiments were run on a BD LSRII Flow Cytometer. The human IgG isotype control used was purchased from Jackson ImmunoResearch (009-000-003). The human IgG1 monoclonal anti-DNP antibody (mAb) was purchased from acrobiosystems (DNP-M2). PSMA expression was confirmed with an anti-PSMA antibody Alexa 647 conjugate (Novus Biologicals, Catalog #FAB4234R). For PSMA competition controls, PMPA was purchased from Sigma (SML1612). Hek-293T (PSMA+/−) cell lines were generously given by Dr. Cyril Barinka (Institute of Biotechnology CAS, Czech Republic). U937 cells were generously given by Dr. John Valliant (McMaster University, Canada). LNCaP cells were generously given by Dr. Karen Mossman (McMaster University, Canada). IFN-γ was purchased from Fischer Scientific (PHC4031). Ultra low IgG FBS was purchased from Fischer Scientific (A3381901). RPMI-1640 was purchased as a powder from Fischer Scientific (31800089) and resuspended. DMEM was purchased as a powder from Fischer Scientific (12800082) and resuspended. […]
For preparation of effector monocytes, 24 hours prior to inducing phagocytosis U937 monocytes were seeded at 500,000 cells/mL and activated with IFN-γ ([…]). After incubation, these cells were then counted and washed twice with serum free assay media (neat RPMI). […] These cells were then counted and washed twice with serum free assay media (neat RPMI). […]

For the compound `O=C(O)CC[C@H](NC(=O)N[C@@H](CCCCNC(=O)NCCOCCOCCOCCOCCOCCOCCOCCOC(=O)n1cnc(CCNC(=O)CNc2ccc([N+](=O)[O-])cc2[N+](=O)[O-])c1)C(=O)O)C(=O)O` [CIR 3], the “CD64 based target immune recognition (phagocytosis)” value is “only provided a functional enhancement relative to ARM 11 at low antibody concentrations”.
